pIC50: −log10 of the molar value.
System: 186277-243-T-J2-PDC complex spheroid growth
Assay: Anticancer human tumor 186277-243-T-J2-PDC patient-derived colon adenocarcinoma cell line growth inhibition [AhR]
Settings: for pIC50: curve of first compound; for viability, T/C: stronger effect = lower value; active means viability on the fitted dose curve at most 10% of control; inactive means the rest
In short: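 Spheroids combined tumor cells with HUVEC endothelial cells and human MSCs as stroma. AhR antagonists were paired with standard or investigational drugs, each dosed in half-log steps down from near clinical Cmax, or from 10 microM where Cmax was unknown.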

[1] = second compound 0.1 µM, first compound 0.000949 µM
[2] = second compound 0.1 µM, first compound 0.003 µM
[3] = second compound 0.1 µM, first compound 0.00949 µM
[4] = second compound 0.1 µM, first compound 0.03 µM
[5] = second compound 0.1 µM, first compound 0.0949 µM
[6] = second compound 0.1 µM, first compound 0.3 µM
[7] = second compound 0.316 µM, first compound 0.000949 µM
[8] = second compound 0.316 µM, first compound 0.003 µM
[9] = second compound 0.316 µM, first compound 0.00949 µM
[10] = second compound 0.316 µM, first compound 0.03 µM
[11] = second compound 0.316 µM, first compound 0.0949 µM
[12] = second compound 0.316 µM, first compound 0.3 µM
[13] = second compound 1 µM, first compound 0.000949 µM
[14] = second compound 1 µM, first compound 0.003 µM
[15] = second compound 1 µM, first compound 0.00949 µM
[16] = second compound 1 µM, first compound 0.03 µM
[17] = second compound 1 µM, first compound 0.0949 µM
[18] = second compound 1 µM, first compound 0.3 µM
[19] = second compound 3.16 µM, first compound 0.000949 µM
[20] = second compound 3.16 µM, first compound 0.003 µM
[21] = second compound 3.16 µM, first compound 0.00949 µM
[22] = second compound 3.16 µM, first compound 0.03 µM
[23] = second compound 3.16 µM, first compound 0.0949 µM
[24] = second compound 3.16 µM, first compound 0.3 µM
[25] = second compound 10 µM, first compound 0.000949 µM
[26] = second compound 10 µM, first compound 0.003 µM
[27] = second compound 10 µM, first compound 0.00949 µM
[28] = second compound 10 µM, first compound 0.03 µM
[29] = second compound 10 µM, first compound 0.0949 µM
[30] = second compound 10 µM, first compound 0.3 µM
[31] = second compound 0.1 µM, first compound 0.0316 µM
[32] = second compound 0.1 µM, first compound 0.1 µM
[33] = second compound 0.1 µM, first compound 0.316 µM
[34] = second compound 0.1 µM, first compound 1 µM
[35] = second compound 0.1 µM, first compound 3.16 µM
[36] = second compound 0.1 µM, first compound 10 µM
[37] = second compound 0.316 µM, first compound 0.0316 µM
[38] = second compound 0.316 µM, first compound 0.1 µM
[39] = second compound 0.316 µM, first compound 0.316 µM
[40] = second compound 0.316 µM, first compound 1 µM
[41] = second compound 0.316 µM, first compound 3.16 µM
[42] = second compound 0.316 µM, first compound 10 µM
[43] = second compound 1 µM, first compound 0.0316 µM
[44] = second compound 1 µM, first compound 0.1 µM
[45] = second compound 1 µM, first compound 0.316 µM
[46] = second compound 1 µM, first compound 1 µM
[47] = second compound 1 µM, first compound 3.16 µM
[48] = second compound 1 µM, first compound 10 µM
[49] = second compound 3.16 µM, first compound 0.0316 µM
[50] = second compound 3.16 µM, first compound 0.1 µM
[51] = second compound 3.16 µM, first compound 0.316 µM
[52] = second compound 3.16 µM, first compound 1 µM
[53] = second compound 3.16 µM, first compound 3.16 µM
[54] = second compound 3.16 µM, first compound 10 µM
[55] = second compound 10 µM, first compound 0.0316 µM
[56] = second compound 10 µM, first compound 0.1 µM
[57] = second compound 10 µM, first compound 0.316 µM
[58] = second compound 10 µM, first compound 1 µM
[59] = second compound 10 µM, first compound 3.16 µM
[60] = second compound 10 µM, first compound 10 µM
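Further: spheroids exposed to compounds for seven days before the viability read.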
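Wherever viability, T/C is given: luminescent signal used as a stand-in for viable cell amount; 100% = DMSO vehicle control wells.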

CC(C)CC(NC(=O)C(Cc1ccccc1)NC(=O)c1cnccn1)B(O)O (stereo not given) + Cc1cncc(-c2nc(NCCc3c[nH]c4ccccc34)c3ncn(C(C)C)c3n2)c1
> 9.02: pIC50 (second compound 10 µM)
inactive: viability, T/C [1] 103% | viability, T/C [2] 108% | viability, T/C [3] 88.1% | viability, T/C [7] 131% | viability, T/C [8] 120% | viability, T/C [9] 89.1% | viability, T/C [13] 97.3% | viability, T/C [14] 107% | viability, T/C [15] 95.2% | viability, T/C [19] 102% | viability, T/C [20] 116% | viability, T/C [21] 65.1% | viability, T/C [25] 44.9% | viability, T/C [26] 53.5%
7.79: pIC50 (second compound 1 µM)
7.91: pIC50 (second compound 3.16 µM)
active: viability, T/C [4] 1.86% | viability, T/C [5] 0.49% | viability, T/C [6] 0.14% | viability, T/C [10] 0.33% | viability, T/C [11] 0.05% | viability, T/C [12] 0.12% | viability, T/C [16] 0.51% | viability, T/C [17] 0.15% | viability, T/C [18] 0.11% | viability, T/C [22] 0.66% | viability, T/C [23] 0.05% | viability, T/C [24] 0.13% | viability, T/C [27] 1.63% | viability, T/C [28] 0.26% | viability, T/C [29] 0.13% | viability, T/C [30] 0.2%
7.80: pIC50 (second compound 0.1 µM) | pIC50 (second compound 0.316 µM)

CCc1c2c(nc3ccc(O)cc13)-c1cc3c(c(=O)n1C2)COC(=O)[C@]3(O)CC + Cc1cncc(-c2nc(NCCc3c[nH]c4ccccc34)c3ncn(C(C)C)c3n2)c1
7.63: pIC50 (second compound 0.1 µM)
inactive: viability, T/C [1] 112% | viability, T/C [2] 96% | viability, T/C [3] 66% | viability, T/C [4] 46.1% | viability, T/C [5] 25.2% | viability, T/C [6] 11.7% | viability, T/C [7] 126% | viability, T/C [8] 83.1% | viability, T/C [9] 70.9% | viability, T/C [10] 44.2% | viability, T/C [11] 21.7% | viability, T/C [12] 11.7% | viability, T/C [13] 123% | viability, T/C [14] 83.7% | viability, T/C [15] 73.5% | viability, T/C [16] 48.5% | viability, T/C [17] 20.2% | viability, T/C [19] 108% | viability, T/C [20] 75.2% | viability, T/C [21] 66.8% | viability, T/C [22] 43.7% | viability, T/C [23] 17.3% | viability, T/C [25] 24.6% | viability, T/C [26] 28.9% | viability, T/C [27] 32% | viability, T/C [28] 17.6% | viability, T/C [29] 6.54%
7.69: pIC50 (second compound 0.316 µM)
active: viability, T/C [18] 11.8% | viability, T/C [24] 9.67% | viability, T/C [30] 3.87%
7.75: pIC50 (second compound 3.16 µM)
7.58: pIC50 (second compound 1 µM)
> 9.02: pIC50 (second compound 10 µM)

COc1cc(Nc2ncc3c(n2)-c2ccc(Cl)cc2C(c2c(F)cccc2OC)=NC3)ccc1C(=O)O + Cc1cncc(-c2nc(NCCc3c[nH]c4ccccc34)c3ncn(C(C)C)c3n2)c1
> 7.50: pIC50 (second compound 10 µM)
inactive: viability, T/C [31] 90.2% | viability, T/C [32] 77.9% | viability, T/C [33] 70.2% | viability, T/C [34] 61.6% | viability, T/C [35] 70.5% | viability, T/C [36] 74.5% | viability, T/C [37] 91.9% | viability, T/C [38] 78.6% | viability, T/C [39] 72.3% | viability, T/C [40] 61.8% | viability, T/C [41] 67.1% | viability, T/C [42] 72.2% | viability, T/C [43] 96.9% | viability, T/C [44] 75.4% | viability, T/C [45] 74.4% | viability, T/C [46] 67.1% | viability, T/C [47] 64.3% | viability, T/C [48] 70.6% | viability, T/C [49] 93.2% | viability, T/C [50] 71.4% | viability, T/C [51] 71.9% | viability, T/C [52] 59.4% | viability, T/C [53] 63% | viability, T/C [54] 71.5% | viability, T/C [55] 37.9% | viability, T/C [56] 27.4% | viability, T/C [57] 23.2% | viability, T/C [58] 24.6% | viability, T/C [59] 23.8% | viability, T/C [60] 31.6%
< 5.00: pIC50 (second compound 0.1 µM) | pIC50 (second compound 0.316 µM) | pIC50 (second compound 1 µM) | pIC50 (second compound 3.16 µM)

Nc1ccccc1NC(=O)c1ccc(CNC(=O)OCc2cccnc2)cc1 + Cc1cncc(-c2nc(NCCc3c[nH]c4ccccc34)c3ncn(C(C)C)c3n2)c1
5.51: pIC50 (second compound 0.316 µM)
5.50: pIC50 (second compound 0.1 µM)
5.43: pIC50 (second compound 1 µM)
active: viability, T/C [36] 8.44% | viability, T/C [42] 7.07% | viability, T/C [48] 8.57% | viability, T/C [54] 8.37% | viability, T/C [59] 2.97% | viability, T/C [60] 0.95%
inactive: viability, T/C [31] 91.1% | viability, T/C [32] 94.1% | viability, T/C [33] 100% | viability, T/C [34] 96% | viability, T/C [35] 49.7% | viability, T/C [37] 101% | viability, T/C [38] 105% | viability, T/C [39] 101% | viability, T/C [40] 93.5% | viability, T/C [41] 48.8% | viability, T/C [43] 82% | viability, T/C [44] 114% | viability, T/C [45] 92.2% | viability, T/C [46] 111% | viability, T/C [47] 57.1% | viability, T/C [49] 94.1% | viability, T/C [50] 97.7% | viability, T/C [51] 93.1% | viability, T/C [52] 86.1% | viability, T/C [53] 51.6% | viability, T/C [55] 42.4% | viability, T/C [56] 36.9% | viability, T/C [57] 23.9% | viability, T/C [58] 10.1%
> 7.50: pIC50 (second compound 10 µM)
5.48: pIC50 (second compound 3.16 µM)

O=C(C=Cc1cccc(S(=O)(=O)Nc2ccccc2)c1)NO + Cc1cncc(-c2nc(NCCc3c[nH]c4ccccc34)c3ncn(C(C)C)c3n2)c1
active: viability, T/C [35] 8.19% | viability, T/C [36] 2.59% | viability, T/C [41] 7.8% | viability, T/C [42] 2.18% | viability, T/C [47] 9.76% | viability, T/C [48] 2.85% | viability, T/C [53] 10.6% | viability, T/C [54] 3.82% | viability, T/C [58] 10.7% | viability, T/C [59] 6.37% | viability, T/C [60] 3.77%
6.12: pIC50 (second compound 3.16 µM)
6.02: pIC50 (second compound 0.1 µM)
inactive: viability, T/C [31] 98.9% | viability, T/C [32] 89.6% | viability, T/C [33] 94% | viability, T/C [34] 47.9% | viability, T/C [37] 92.1% | viability, T/C [38] 89.1% | viability, T/C [39] 94.8% | viability, T/C [40] 42% | viability, T/C [43] 105% | viability, T/C [44] 95.7% | viability, T/C [45] 86.8% | viability, T/C [46] 42.2% | viability, T/C [49] 106% | viability, T/C [50] 103% | viability, T/C [51] 111% | viability, T/C [52] 31.8% | viability, T/C [55] 76.9% | viability, T/C [56] 67.9% | viability, T/C [57] 28.2%
6.08: pIC50 (second compound 0.316 µM)
6.77: pIC50 (second compound 10 µM)
6.09: pIC50 (second compound 1 µM)

O=C(c1cc(Cc2n[nH]c(=O)c3ccccc23)ccc1F)N1CCN(C(=O)C2CC2)CC1 + Cc1cncc(-c2nc(NCCc3c[nH]c4ccccc34)c3ncn(C(C)C)c3n2)c1
> 7.50: pIC50 (second compound 10 µM)
inactive: viability, T/C [31] 107% | viability, T/C [32] 110% | viability, T/C [33] 88.1% | viability, T/C [34] 110% | viability, T/C [35] 123% | viability, T/C [36] 123% | viability, T/C [37] 108% | viability, T/C [38] 103% | viability, T/C [39] 96.5% | viability, T/C [40] 110% | viability, T/C [41] 125% | viability, T/C [42] 130% | viability, T/C [43] 97.6% | viability, T/C [44] 96.5% | viability, T/C [45] 100% | viability, T/C [46] 115% | viability, T/C [47] 125% | viability, T/C [48] 134% | viability, T/C [49] 115% | viability, T/C [50] 110% | viability, T/C [51] 115% | viability, T/C [52] 116% | viability, T/C [53] 146% | viability, T/C [54] 130% | viability, T/C [55] 48.2% | viability, T/C [56] 44.3% | viability, T/C [57] 38.8% | viability, T/C [58] 41.5% | viability, T/C [59] 28.5% | viability, T/C [60] 21.5%
< 5.00: pIC50 (second compound 0.1 µM) | pIC50 (second compound 0.316 µM) | pIC50 (second compound 1 µM) | pIC50 (second compound 3.16 µM)
